# Assay results taken from ChEMBL document CHEMBL5614436, “Targeting HSP90 for Cancer Therapy: Current Progress and Emerging Prospects” (J Med Chem, 2024).
# Tests used:
# [1] = molecular target: Serine/threonine-protein kinase B-raf (Homo sapiens, UniProt P15056, V600E); experiment: Inhibition of B-Raf V600E mutant (unknown origin)
# [2] = molecular target: Serine/threonine-protein kinase B-raf (Homo sapiens, UniProt P15056); experiment: Inhibition of B-Raf (unknown origin)
# [3] = Inhibition of HSP90 (unknown origin) by AlphaScreen assay; parameters: species or system Homo sapiens
# [4] = Inhibition of DNA topoisomerase 2 (unknown origin); parameters: species or system Homo sapiens
# Tubulin = experiment: Inhibition of tubulin polymerization (unknown origin); assay type: protein-complex assay, Homo sapiens
# [5] = molecular target: Heat shock protein HSP 90-beta (Homo sapiens, UniProt P08238); experiment: Binding affinity to HSP90beta (unknown origin) assessed as dissociation constant by fluorescence polarization assay
# Heat shock protein HSP 90-beta, sequence (P08238 whole entry): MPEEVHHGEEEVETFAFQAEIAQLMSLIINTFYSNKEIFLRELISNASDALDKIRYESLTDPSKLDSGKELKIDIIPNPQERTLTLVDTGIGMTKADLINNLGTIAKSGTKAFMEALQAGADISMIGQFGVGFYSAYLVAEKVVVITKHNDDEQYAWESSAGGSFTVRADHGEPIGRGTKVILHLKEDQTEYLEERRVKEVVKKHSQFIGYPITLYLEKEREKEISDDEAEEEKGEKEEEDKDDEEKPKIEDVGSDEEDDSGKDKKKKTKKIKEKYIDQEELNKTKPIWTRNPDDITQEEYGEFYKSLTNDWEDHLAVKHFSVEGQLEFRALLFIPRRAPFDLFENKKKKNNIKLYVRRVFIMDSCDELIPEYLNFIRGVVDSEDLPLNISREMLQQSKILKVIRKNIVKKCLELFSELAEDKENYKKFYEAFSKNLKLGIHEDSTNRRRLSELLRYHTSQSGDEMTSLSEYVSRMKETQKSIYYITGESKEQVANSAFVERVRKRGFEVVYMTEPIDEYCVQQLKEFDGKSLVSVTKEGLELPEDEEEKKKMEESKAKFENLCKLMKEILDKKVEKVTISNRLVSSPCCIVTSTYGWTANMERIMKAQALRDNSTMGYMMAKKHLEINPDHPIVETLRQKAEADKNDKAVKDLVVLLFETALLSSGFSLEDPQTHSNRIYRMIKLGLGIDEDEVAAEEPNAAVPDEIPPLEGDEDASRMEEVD
# [6] = molecular target: T1, Heat shock protein HSP 90-alpha (Homo sapiens, UniProt P07900); experiment: Binding affinity to HSP90alpha (unknown origin) assessed as dissociation constant by fluorescence polarization assay
# [7] = molecular target: [Pyruvate dehydrogenase (acetyl-transferring)] kinase isozyme 1, mitochondrial (Homo sapiens, UniProt Q15118); experiment: Inhibition of PDHK1 (unknown origin)
# [Pyruvate dehydrogenase (acetyl-transferring)] kinase isozyme 1, mitochondrial, sequence (Q15118 whole entry): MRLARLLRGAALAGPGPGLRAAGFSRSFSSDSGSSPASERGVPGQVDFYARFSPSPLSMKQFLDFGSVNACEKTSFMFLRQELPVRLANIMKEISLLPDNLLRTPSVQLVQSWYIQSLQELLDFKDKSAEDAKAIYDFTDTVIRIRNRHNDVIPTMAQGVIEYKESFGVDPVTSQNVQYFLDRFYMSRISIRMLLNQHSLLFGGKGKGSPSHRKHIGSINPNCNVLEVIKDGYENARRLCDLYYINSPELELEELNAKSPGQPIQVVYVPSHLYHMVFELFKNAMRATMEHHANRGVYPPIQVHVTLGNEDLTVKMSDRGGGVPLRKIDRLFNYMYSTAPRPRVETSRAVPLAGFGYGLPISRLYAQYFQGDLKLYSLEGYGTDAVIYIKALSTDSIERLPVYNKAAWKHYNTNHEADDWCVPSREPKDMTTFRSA
# [8] = molecular target: T1, Heat shock protein HSP 90-alpha; experiment: Inhibition of HSP90alpha (unknown origin)
# Endoplasmin = Endoplasmin (Homo sapiens, UniProt P14625); experiment: Inhibition of recombinant GRP94 (unknown origin)
# Endoplasmin, sequence (P14625 whole entry): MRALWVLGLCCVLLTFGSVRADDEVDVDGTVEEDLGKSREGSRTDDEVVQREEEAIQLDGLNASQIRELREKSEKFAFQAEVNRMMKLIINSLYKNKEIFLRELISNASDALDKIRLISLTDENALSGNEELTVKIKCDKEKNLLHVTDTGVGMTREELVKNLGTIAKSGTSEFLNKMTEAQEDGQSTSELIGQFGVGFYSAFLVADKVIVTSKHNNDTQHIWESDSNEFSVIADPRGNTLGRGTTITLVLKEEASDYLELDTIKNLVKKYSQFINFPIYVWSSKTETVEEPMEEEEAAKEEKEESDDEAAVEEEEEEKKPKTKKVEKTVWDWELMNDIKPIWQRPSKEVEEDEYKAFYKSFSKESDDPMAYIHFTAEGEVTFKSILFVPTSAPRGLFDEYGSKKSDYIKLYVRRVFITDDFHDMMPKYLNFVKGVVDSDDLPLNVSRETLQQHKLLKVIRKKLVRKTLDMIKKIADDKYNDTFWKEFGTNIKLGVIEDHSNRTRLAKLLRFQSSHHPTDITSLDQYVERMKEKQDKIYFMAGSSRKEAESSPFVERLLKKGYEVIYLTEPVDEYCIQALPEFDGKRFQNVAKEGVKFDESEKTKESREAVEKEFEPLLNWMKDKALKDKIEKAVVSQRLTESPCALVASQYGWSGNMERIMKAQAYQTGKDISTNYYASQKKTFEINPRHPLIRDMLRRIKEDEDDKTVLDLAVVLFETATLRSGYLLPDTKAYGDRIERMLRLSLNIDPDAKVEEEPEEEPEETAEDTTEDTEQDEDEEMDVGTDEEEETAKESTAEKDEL
# [9] = molecular target: T1, Heat shock protein HSP 90-alpha; experiment: Binding affinity to recombinant HSP90alpha (unknown origin) assessed as dissociation constant measured for 24 hrs by fluorescence polarization assay
# Serine/threonine-protein kinase B-raf (Homo sapiens, UniProt P15056), sequence (P15056 whole entry): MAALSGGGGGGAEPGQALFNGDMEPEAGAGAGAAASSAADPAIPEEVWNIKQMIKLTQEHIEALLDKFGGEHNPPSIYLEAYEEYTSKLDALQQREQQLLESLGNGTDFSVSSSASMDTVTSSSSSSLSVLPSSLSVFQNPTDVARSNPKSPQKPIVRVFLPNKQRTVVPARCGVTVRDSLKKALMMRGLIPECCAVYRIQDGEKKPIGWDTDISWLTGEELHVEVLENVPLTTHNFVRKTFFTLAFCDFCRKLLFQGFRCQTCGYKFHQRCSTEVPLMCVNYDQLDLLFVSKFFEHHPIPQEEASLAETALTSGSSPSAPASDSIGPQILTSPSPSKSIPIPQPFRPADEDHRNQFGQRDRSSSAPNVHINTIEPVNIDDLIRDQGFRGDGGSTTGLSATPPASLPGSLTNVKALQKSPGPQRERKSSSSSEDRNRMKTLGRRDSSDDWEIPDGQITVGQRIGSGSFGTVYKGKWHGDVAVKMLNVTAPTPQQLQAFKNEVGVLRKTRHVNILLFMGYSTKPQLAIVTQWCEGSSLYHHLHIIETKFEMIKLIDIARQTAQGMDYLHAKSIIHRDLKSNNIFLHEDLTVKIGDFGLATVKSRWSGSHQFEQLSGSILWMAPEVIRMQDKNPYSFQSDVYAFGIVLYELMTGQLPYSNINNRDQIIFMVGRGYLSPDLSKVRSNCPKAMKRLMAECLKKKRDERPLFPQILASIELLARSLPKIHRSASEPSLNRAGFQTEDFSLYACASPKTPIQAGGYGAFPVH
# Serine/threonine-protein kinase B-raf (Homo sapiens, UniProt P15056, V600E), sequence (P15056 2-766 V600E limits assumed): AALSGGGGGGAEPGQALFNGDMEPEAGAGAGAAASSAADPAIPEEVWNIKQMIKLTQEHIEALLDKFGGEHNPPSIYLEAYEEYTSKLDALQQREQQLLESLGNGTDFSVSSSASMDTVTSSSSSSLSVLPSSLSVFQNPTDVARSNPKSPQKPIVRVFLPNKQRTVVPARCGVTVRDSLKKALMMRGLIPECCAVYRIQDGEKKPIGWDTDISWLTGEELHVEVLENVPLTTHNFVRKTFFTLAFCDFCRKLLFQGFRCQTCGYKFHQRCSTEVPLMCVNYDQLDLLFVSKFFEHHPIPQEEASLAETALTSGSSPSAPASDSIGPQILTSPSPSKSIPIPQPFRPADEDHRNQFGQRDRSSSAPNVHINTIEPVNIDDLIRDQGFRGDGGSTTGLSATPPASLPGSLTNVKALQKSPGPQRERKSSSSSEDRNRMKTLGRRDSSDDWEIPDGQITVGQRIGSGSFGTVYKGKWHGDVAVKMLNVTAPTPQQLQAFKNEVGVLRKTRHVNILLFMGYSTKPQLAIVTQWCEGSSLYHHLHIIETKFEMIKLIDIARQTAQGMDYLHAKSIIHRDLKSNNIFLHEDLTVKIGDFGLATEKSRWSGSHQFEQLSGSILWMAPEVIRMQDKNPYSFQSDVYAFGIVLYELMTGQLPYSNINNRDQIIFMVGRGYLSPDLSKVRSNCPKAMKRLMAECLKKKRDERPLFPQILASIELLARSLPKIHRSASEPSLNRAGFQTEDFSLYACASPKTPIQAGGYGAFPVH
smiles,measurement,setting,value
COc1ccc(-c2c(C#N)c(N)nc3sc(C(N)=O)c(N)c23)cc1OC,IC50,[1],9.1 µM
same,IC50,[2],28.9 µM
N#Cc1c(N)nc2sc(C(N)=O)c(N)c2c1-c1ccc(Cl)cc1,IC50,[1],2.5 µM
same,IC50,[2],1.5 µM
CC1(C)CC(=O)C=C(Nc2c(N)[nH]c(=O)[nH]c2=O)C1,IC50,[3],1.78 µM
same,IC50,[4],4.48 µM
CN(C)c1ccc(/C=C2\S/C(=N/c3ccccc3Cl)NC2=O)cc1,IC50,Tubulin,16.7 µM
same,IC50,[3],5.2 µM
Cc1ccc(Sc2cc(C(=O)N3Cc4ccc(OCCC[N+](C)(C)C)cc4C3)ccc2O)cc1C,Kd,[5],> 100 µM
same,Kd,[6],0.34 µM
COc1ccc(-c2c(/C=C/C(=O)N3CCN(c4ccccc4OC)CC3)noc2-c2cc(Cl)c(O)cc2O)cc1,IC50,[7],0.6 µM
COc1ccc(CN2CCC(NC(=O)c3noc(-c4cc(Cl)c(O)cc4O)c3-c3ccc(OC)cc3)CC2)cc1,IC50,[7],0.01 µM
CCOc1ccccc1Cn1ccnc1CCc1c(Cl)c(O)cc(O)c1C(=O)OC,IC50,[8],8.1 µM
same,IC50,Endoplasmin,0.2 µM
CCOC(=O)c1c(O)cc(O)c(Cl)c1CC(=O)Nc1cc(O)c(OC)cc1O,Kd,[9],0.87 µM
same,Kd,[6],0.87 µM
CC(C)c1cc(C(=O)N2Cc3ccc(CN4CCN(C)CC4)cc3C2)c(O)cc1O [ONALESPIB],Kd,[5],9 µM
Cc1c(C)c(S(=O)(=O)Nc2ccc(Nc3ccnc(N4CCNCC4)n3)cc2)c(C)c2c1OC(C)(C)C2,Kd,[6],5.52 µM
CC(C)c1cc(C(=O)N2CCc3c(sc4nc(-c5ccc(NC(=O)Nc6ccc(F)c(Cl)c6)cc5)nc(N5CCOCC5)c34)C2)c(O)cc1O,IC50,[3],0.069 µM
CC(C)c1cc(C(=O)N2Cc3ccccc3C2)c(O)c2ccoc12,Kd,[5],0.27 µM
same,Kd,[6],> 100 µM
